# Laboratory results reported in paper PMC3815952 (Microbial biotechnology, 2009).
# Legend:
# [1] = biological target: RHA1_ro00230 (Rhodococcus jostii, UniProt Q0SK70); test: calorimetry, non-linear regression; type: biochemical; details: Tris-SO4 pH 8.5, 30°C
# [2] = biological target: RPA1163 (Rhodopseudomonas palustris, UniProt Q6NAM1); test: calorimetry, non-linear regression; type: biochemical; details: Tris-SO4 pH 8.5, 30°C
# [3] = test system: Bcen2424–2051; details: read-out: Substrates / Chloroacetate / KM; Tris-SO4 pH 8.5, 30°C
# [4] = test system: Adeh3811; test: calorimetry, non-linear regression; type: biochemical, Anaeromyxobacter dehalogenans; details: Tris-SO4 pH 8.5, 30°C
# [5] = test system: Bpro4516; details: Tris-SO4 pH 8.5, 30°C
# RPA1163, sequence (Q6NAM1 whole entry): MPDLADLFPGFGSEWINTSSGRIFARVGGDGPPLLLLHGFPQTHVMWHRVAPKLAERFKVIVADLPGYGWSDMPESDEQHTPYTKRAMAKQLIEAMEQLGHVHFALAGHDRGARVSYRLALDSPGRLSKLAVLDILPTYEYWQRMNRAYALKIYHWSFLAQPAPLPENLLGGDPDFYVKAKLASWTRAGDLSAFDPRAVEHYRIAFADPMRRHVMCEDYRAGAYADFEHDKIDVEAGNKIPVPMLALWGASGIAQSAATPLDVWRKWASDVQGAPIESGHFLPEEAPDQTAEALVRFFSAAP
# RHA1_ro00230, sequence (Q0SK70 1-254): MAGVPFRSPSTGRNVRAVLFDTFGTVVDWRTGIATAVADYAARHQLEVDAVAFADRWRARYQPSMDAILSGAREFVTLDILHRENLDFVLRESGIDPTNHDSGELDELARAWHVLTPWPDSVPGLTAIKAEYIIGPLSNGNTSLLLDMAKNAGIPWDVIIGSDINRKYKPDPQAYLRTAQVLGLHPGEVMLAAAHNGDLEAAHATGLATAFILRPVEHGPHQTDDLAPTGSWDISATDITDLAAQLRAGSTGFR
Structure (SMILES),Substrates / Chloroacetate / KM (μM) [1],Substrates / Chloroacetate / KM (μM) [2],Km [3] [µM],Substrates / Fluoroacetate / KM (μM) [4],Substrates / Fluoroacetate / KM (μM) [1],Substrates / Fluoroacetate / KM (μM) [2],Substrates / Fluoroacetate / KM (μM) [5]
O=C(O)CCl [chloroacetate],19 000 ± 2000 µM,1 400 ± 400 µM,17 ± 2,–,–,–,–
O=C(O)CF [fluoroacetate],–,–,–,13 500 ± 300 µM,20 000 ± 2000 µM,3 300 ± 200 µM,19 000 ± 2000 µM
